One experiment has as its target Cbl-b (Homo sapiens (Human), UniProt Q13191). As to the kind of experiment: Cbl-b LCK Ub TR-FRET assay (Cbl-b Lck HTRF). Type of experiment: biochemical. In short, it runs like this:
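TR-FRET (340 nm excitation, 615/665 nm emission) read after adding HA-ubiquitin–UBE2D2 thioester, anti-HA-D2 and streptavidin-Eu. Beforehand, compounds incubated 60 min with biotinylated Cbl-b, then 90 min with His-LCK and ATP (1 mM in 2× mix); IC50 from 10 concentrations, DMSO high and no-LCK low controls.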
(In general: Time-resolved FRET reads energy transfer from a long-lived donor to a nearby acceptor.)

Another experiment concerns the target c-Cbl (Homo sapiens (Human), UniProt P22681). Kind of experiment: C-Cbl LCK Ub TR-FRET assay (c-cbl Lck HTRF). Type of experiment: biochemical. The following applies: for (fold-selectivity): C-cbl Lck HTRF IC50 relative to Cbl-b Lck HTRF IC50. An outline of the steps: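 Signal is read once the detection mix has stood 20 min at ambient temperature. Curves are anchored by DMSO as maximum and by omission of LCK as minimum.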

Structures can show the parent of a compound that is named as a salt.

Chain of c-Cbl (P22681 47-435): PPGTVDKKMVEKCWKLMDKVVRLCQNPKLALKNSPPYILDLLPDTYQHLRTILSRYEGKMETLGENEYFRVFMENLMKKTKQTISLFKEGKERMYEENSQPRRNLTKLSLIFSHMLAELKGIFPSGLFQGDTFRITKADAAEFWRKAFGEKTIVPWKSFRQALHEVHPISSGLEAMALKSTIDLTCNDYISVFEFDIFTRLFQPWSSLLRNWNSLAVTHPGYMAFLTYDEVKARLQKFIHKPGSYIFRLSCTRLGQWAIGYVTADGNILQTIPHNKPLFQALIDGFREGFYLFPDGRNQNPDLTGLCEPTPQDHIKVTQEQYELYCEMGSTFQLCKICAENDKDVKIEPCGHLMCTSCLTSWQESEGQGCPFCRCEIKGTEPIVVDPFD
Chain of Cbl-b (Q13191 40-426): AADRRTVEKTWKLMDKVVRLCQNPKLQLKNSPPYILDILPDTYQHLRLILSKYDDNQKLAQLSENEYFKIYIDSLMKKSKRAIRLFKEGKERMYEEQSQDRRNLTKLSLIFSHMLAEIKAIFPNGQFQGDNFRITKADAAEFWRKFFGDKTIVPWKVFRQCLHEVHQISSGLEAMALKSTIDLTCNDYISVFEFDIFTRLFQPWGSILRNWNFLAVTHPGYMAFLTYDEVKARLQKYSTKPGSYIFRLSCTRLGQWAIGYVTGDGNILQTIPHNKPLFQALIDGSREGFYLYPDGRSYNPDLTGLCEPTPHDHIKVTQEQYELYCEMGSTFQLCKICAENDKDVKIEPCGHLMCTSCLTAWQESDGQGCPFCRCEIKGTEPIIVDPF

As to `Cn1cnnc1CC1(c2cccc(N3Cc4c(cc(CNC(C)(C)C)cc4C(F)(F)F)C3=O)c2)CC(F)(F)C1` [Compound 283, 6-((tert-butylamino)methyl)-2-(3-(3,3-difluoro-1-((4-methyl-4H-1,2,4-triazol-3-yl)methyl)cyclobutyl)phenyl)-4-(trifluoromethyl)isoindolin-1-one], the half-maximal inhibitory concentration (IC50) (commonly the concentration at which inhibition is half-maximal) against Cbl-b is 53 nM; against c-Cbl, 57 nM. For the same compound, the “(fold-selectivity)” value at c-Cbl is listed as “(1.1x)”.
For `Cn1cnnc1CC1(c2cc(C3CC3)nc(N3Cc4c(cc(CNC5(C)CCC5)cc4C(F)(F)F)C3=O)c2)CCC1` [Compound 284, 2-(6-cyclopropyl-4-(1-((4-methyl-4H-1,2,4-triazol-3-yl)methyl)cyclobutyl)pyridin-2-yl)-6-(((1-methylcyclobutyl)amino)methyl)-4-(trifluoromethyl)isoindolin-1-one] the same measures were 12 nM, 7.4 nM and “(0.59x)”.
`CCOc1cc(C2(Cc3nncn3C)CCC2)cc(N2Cc3c(cc(CNC4(C)CCC4)cc3C(F)(F)F)C2=O)n1` [Compound 285, 2-(6-ethoxy-4-(1-((4-methyl-4H-1,2,4-triazol-3-yl)methyl)cyclobutyl)pyridin-2-yl)-6-(((1-methylcyclobutyl)amino)methyl)-4-(trifluoromethyl)isoindolin-1-one] showed an IC50 against Cbl-b of 8 nM. Further, at c-Cbl, inhibition was half-maximal at 5.3 nM (IC50) and the “(fold-selectivity)” value was “(0.71x)”.
On Cbl-b, `CCSc1cc(C2(Cc3nncn3C)CCC2)cc(N2Cc3c(cc(CNC4(C)CCC4)cc3C(F)(F)F)C2=O)n1` [Compound 286, 2-(6-(ethylthio)-4-(1-((4-methyl-4H-1,2,4-triazol-3-yl)methyl)cyclobutyl)pyridin-2-yl)-6-(((1-methylcyclobutyl)amino)methyl)-4-(trifluoromethyl)isoindolin-1-one] showed an IC50 of 6.8 nM. In addition, at c-Cbl, half-maximal inhibition (IC50) required 4.9 nM and the “(fold-selectivity)” value is reported as “(0.73x)”.
`Cn1cnnc1C(F)(F)C1(c2cccc(N3Cc4c(cc(CNC5(C)CCC5)cc4C(F)(F)F)C3=O)c2)COC1` [Compound 287, 2-(3-(3-(difluoro(4-methyl-4H-1,2,4-triazol-3-yl)methyl)oxetan-3-yl)phenyl)-6-(((1-methylcyclobutyl)amino)methyl)-4-(trifluoromethyl)isoindolin-1-one]: on Cbl-b, the IC50 was 32 nM. For the same compound, at c-Cbl, inhibition was half-maximal at 43 nM (IC50) and the “(fold-selectivity)” value was “(1.4x)”.
`CCNc1cc(C2(Cc3nncn3C)COC2)cc(N2Cc3c(cc(CNC4(C)CCC4)cc3C(F)(F)F)C2=O)n1` [Compound 290, 2-(6-(ethylamino)-4-(3-((4-methyl-4H-1,2,4-triazol-3-yl)methyl)oxetan-3-yl)pyridin-2-yl)-6-(((1-methylcyclobutyl)amino)methyl)-4-(trifluoromethyl)isoindolin-1-one] gave an IC50 against Cbl-b of 10 nM. Besides, on c-Cbl, the IC50 came to 5.4 nM and the “(fold-selectivity)” value is on record as “(0.54x)”.
At Cbl-b, `CCNc1cc(C2(Cc3nncn3C)COC2)cc(N2Cc3c(cc(CN4CCN(C)C[C@@H]4C(C)C)cc3C(F)(F)F)C2=O)n1` [Compound 291, (S)-2-(6-(ethylamino)-4-(3-((4-methyl-4H-1,2,4-triazol-3-yl)methyl)oxetan-3-yl)pyridin-2-yl)-6-((2-isopropyl-4-methylpiperazin-1-yl)methyl)-4-(trifluoromethyl)isoindolin-1-one] displayed an IC50 of 12 nM. Also, on c-Cbl, the IC50 came to 8.2 nM and the “(fold-selectivity)” value is on record as “(0.69x)”.
In the case of `Cn1cnnc1CC1(c2cc(CC3CCCC3)nc(N3Cc4c(cccc4C(F)(F)F)C3=O)c2)COC1` [Compound 292, 2-(6-(cyclopentylmethyl)-4-(3-((4-methyl-4H-1,2,4-triazol-3-yl)methyl)oxetan-3-yl)pyridin-2-yl)-4-(trifluoromethyl)isoindolin-1-one], the IC50 stood at 3400 nM against Cbl-b and 5100 nM against c-Cbl. In addition, at c-Cbl, the “(fold-selectivity)” value is reported as “(1.5x)”.
For `CC(C)[C@H]1CN(C)CCN1Cc1cc2c(c(C(F)(F)F)c1)CN(c1cc(C3(Cc4nncn4C)COC3)cc(OC3CCCC3)n1)C2=O` [Compound 293, (S)-2-(6-(cyclopentyloxy)-4-(3-((4-methyl-4H-1,2,4-triazol-3-yl)methyl)oxetan-3-yl)pyridin-2-yl)-6-((2-isopropyl-4-methylpiperazin-1-yl)methyl)-4-(trifluoromethyl)isoindolin-1-one], it took 5.5 nM to reach half-maximal inhibition against Cbl-b (IC50). At c-Cbl, it took 7.8 nM to reach half-maximal inhibition (IC50) and the “(fold-selectivity)” value is “(1.4x)”.
In turn, `Cn1cnnc1CC1(c2cc(OC3CCCC3)nc(N3Cc4c(cc(CNC5(C)CCC5)cc4C(F)(F)F)C3=O)c2)COC1` [Compound 294, 2-(6-(cyclopentyloxy)-4-(3-((4-methyl-4H-1,2,4-triazol-3-yl)methyl)oxetan-3-yl)pyridin-2-yl)-6-(((1-methylcyclobutyl)amino)methyl)-4-(trifluoromethyl)isoindolin-1-one] yielded an IC50 against Cbl-b of 9.5 nM. Also, at c-Cbl, the IC50 was found to be 16 nM and the “(fold-selectivity)” value is reported as “(1.7x)”.
Turning to `Cn1cnnc1CC1(c2cc(NC3CCCC3)nc(N3Cc4c(cc(CNC5(C)CCC5)cc4C(F)(F)F)C3=O)c2)CCC1` [Compound 295, 2-(6-(cyclopentylamino)-4-(1-((4-methyl-4H-1,2,4-triazol-3-yl)methyl)cyclobutyl)pyridin-2-yl)-6-(((1-methylcyclobutyl)amino)methyl)-4-(trifluoromethyl)isoindolin-1-one], the IC50 came to 44 nM on Cbl-b and 33 nM at c-Cbl. Further, on c-Cbl, the “(fold-selectivity)” value is recorded as “(0.75x)”.
`Cn1cnnc1CC1(c2cc(NC3CCCC3)nc(N3Cc4c(cccc4C(F)(F)F)C3=O)c2)CCC1` [Compound 296, 2-(6-(cyclopentylamino)-4-(1-((4-methyl-4H-1,2,4-triazol-3-yl)methyl)cyclobutyl)pyridin-2-yl)-4-(trifluoromethyl)isoindolin-1-one] returned an IC50 against Cbl-b of 440 nM. For the same compound, at c-Cbl, the IC50 was determined as 2500 nM and the “(fold-selectivity)” value was “(5.7x)”.
Take `CC(C)[C@H]1CN(C)CCN1Cc1cc2c(c(C(F)(F)F)c1)CN(c1cc(C3(Cc4nncn4C)COC3)cc(NC3CCCC3)n1)C2=O` [Compound 297, (S)-2-(6-(cyclopentylamino)-4-(3-((4-methyl-4H-1,2,4-triazol-3-yl)methyl)oxetan-3-yl)pyridin-2-yl)-6-((2-isopropyl-4-methylpiperazin-1-yl)methyl)-4-(trifluoromethyl)isoindolin-1-one formate]: the IC50 worked out at 9.1 nM at Cbl-b and 8 nM against c-Cbl.
Take `Cn1cnnc1CC1(c2cc(NC3CCCC3)nc(N3Cc4c(cc(CNC5(C)CCC5)cc4C(F)(F)F)C3=O)c2)COC1` [Compound 298, 2-(6-(cyclopentylamino)-4-(3-((4-methyl-4H-1,2,4-triazol-3-yl)methyl)oxetan-3-yl)pyridin-2-yl)-6-(((1-methylcyclobutyl)amino)methyl)-4-(trifluoromethyl)isoindolin-1-one]: the concentration for half-maximal inhibition (IC50) against Cbl-b was 9.9 nM. Further, on c-Cbl, the IC50 turned out to be 13 nM and the “(fold-selectivity)” value is listed as “(1.3x)”.
For `CC(C)[C@H]1CN(C)CCN1Cc1cc2c(c(C(F)(F)F)c1)CN(c1cc(C3(Cc4nncn4C)CCC3)cc(C#N)n1)C2=O` [Compound 299, (S)-6-(6-((2-isopropyl-4-methylpiperazin-1-yl)methyl)-1-oxo-4-(trifluoromethyl)isoindolin-2-yl)-4-(1-((4-methyl-4H-1,2,4-triazol-3-yl)methyl)cyclobutyl)picolinonitrile] the same measures were 11 nM, 5.4 nM and “(0.50x)”.
For `Cn1cnnc1CC1(c2cc(C3CC3)nc(N3Cc4c(cc(CNC5(C)CCC5)cc4C(F)(F)F)C3=O)c2)COC1` [Compound 300, 2-(6-cyclopropyl-4-(3-((4-methyl-4H-1,2,4-triazol-3-yl)methyl)oxetan-3-yl)pyridin-2-yl)-6-(((1-methylcyclobutyl)amino)methyl)-4-(trifluoromethyl)isoindolin-1-one], the IC50 on Cbl-b came out at 5.6 nM. Moreover, on c-Cbl, it took 4.7 nM to reach half-maximal inhibition (IC50) and the “(fold-selectivity)” value is “(0.83x)”.
For `Cn1cnnc1CC1(c2cccc(N3Cc4c(cc(CNC5(C)CCC5)cc4C(F)(F)F)C3=O)c2)COC1` [Compound 301, 2-(3-(3-((4-methyl-4H-1,2,4-triazol-3-yl)methyl)oxetan-3-yl)phenyl)-6-(((1-methylcyclobutyl)amino)methyl)-4-(trifluoromethyl)isoindolin-1-one] the same measures were 12 nM, 10 nM and “(0.86x)”.
Consider `COCCN1CCC(Nc2cc(C3(Cc4nncn4C)CCC3)cc(N3Cc4c(cc(CNC5(C)CCC5)cc4C(F)(F)F)C3=O)n2)CC1` [Compound 302, 2-(6-((1-(2-methoxyethyl)piperidin-4-yl)amino)-4-(1-((4-methyl-4H-1,2,4-triazol-3-yl)methyl)cyclobutyl)pyridin-2-yl)-6-(((1-methylcyclobutyl)amino)methyl)-4-(trifluoromethyl)isoindolin-1-one], for which the IC50 against Cbl-b came out at 590 nM. Also, on c-Cbl, the IC50 came to 660 nM and the “(fold-selectivity)” value is on record as “(1.1x)”.
Consider `Cn1cnnc1CC1(c2cc(NCCCN3CCOCC3)nc(N3Cc4c(cc(CNC5(C)CCC5)cc4C(F)(F)F)C3=O)c2)CCC1` [Compound 303, 2-(4-(1-((4-methyl-4H-1,2,4-triazol-3-yl)methyl)cyclobutyl)-6-((3-morpholinopropyl)amino)pyridin-2-yl)-6-(((1-methylcyclobutyl)amino)methyl)-4-(trifluoromethyl)isoindolin-1-one], for which the IC50 worked out at 310 nM on Cbl-b and 190 nM on c-Cbl. Moreover, the “(fold-selectivity)” value at c-Cbl was “(0.59x)”.

Source of the values: patent publication US20250230147A1, “LACTAMS AS CBL-B INHIBITORS” (Genentech, Inc., priority 2021, published 2025).
